Assay results published in patent publication US12410184B2, “Crystalline forms of a menin inhibitor” (Kura Oncology, Inc., priority 2023, dated 2025).

Key:
[1] = Compound 1, Form 1 and Form 5 interconversion study (slurry in saturated solutions, XRPD); assay type: physicochemical; conditions: conclusion from Table 5 interconversion study
Procedure: Saturated solutions of Compound 1, Form 1, in EtOH, MTBE, and isopropyl acetate at 50° C. were prepared. About 6 mg of Compound 1, Form 1, and Compound 1, Form 5, were weighed into each saturated solutions, and the resulting suspensions were slurried for 2 days at corresponding temperature. The resulting solids were sampled for XRPD analysis.

[2] = Solid form stability under humidity or vacuum/heat; assay type: physicochemical
Procedure: Treatment of Form 5 at 40° C., 75% relative humidity for 6 days provided mainly Form 4.
Treatment of Form 4 at 50° C. under vacuum and inert atmosphere for 5 days provided mainly Form 4.

Structure (SMILES): CNc1nc(NC2CCN(Cc3ccc4c(cc(C#N)n4C[C@H](C)N4CCN(S(C)(=O)=O)CC4)c3C)CC2)c2cc(CC(F)(F)F)sc2n1 [Compound 1, Form 1, (S)-4-methyl-5-((4-((2-(methylamino)-6-(2,2,2-trifluoroethyl)thieno[2,3-d]pyrimidin-4-yl)amino)piperidin-1-yl)methyl)-1-(2-(4-(methylsulfonyl)piperazin-1-yl)propyl)-1H-indole-2-carbonitrile]
- Thermodynamic stability of crystalline form [1]: thermodynamically stable crystalline form

Structure (SMILES): CNc1nc(NC2CCN(Cc3ccc4c(cc(C#N)n4C[C@H](C)N4CCN(S(C)(=O)=O)CC4)c3C)CC2)c2cc(CC(F)(F)F)sc2n1 [Compound 1, Form 4, (S)-4-methyl-5-((4-((2-(methylamino)-6-(2,2,2-trifluoroethyl)thieno[2,3-d]pyrimidin-4-yl)amino)piperidin-1-yl)methyl)-1-(2-(4-(methylsulfonyl)piperazin-1-yl)propyl)-1H-indole-2-carbonitrile]
- Solid form after treatment ([2]; 50° C. under vacuum and inert atmosphere, 5 days): mainly Form 4

Structure (SMILES): CNc1nc(NC2CCN(Cc3ccc4c(cc(C#N)n4C[C@H](C)N4CCN(S(C)(=O)=O)CC4)c3C)CC2)c2cc(CC(F)(F)F)sc2n1 [Compound 1, Form 5, (S)-4-methyl-5-((4-((2-(methylamino)-6-(2,2,2-trifluoroethyl)thieno[2,3-d]pyrimidin-4-yl)amino)piperidin-1-yl)methyl)-1-(2-(4-(methylsulfonyl)piperazin-1-yl)propyl)-1H-indole-2-carbonitrile]
- Solid form after treatment ([2]; 40° C., 75% relative humidity, 6 days): mainly Form 4
